# Data as given in patent US20250171457A1, “NITROGEN-CONTAINING HETEROCYCLIC COMPOUND HAVING NRF2 ACTIVATION EFFECT” (CHUGAI SEIYAKU KABUSHIKI KAISHA, priority 2022, published 2025).
# Test system: Nrf2 transcriptional activity (pARE-Luc reporter) in HepG2 cells
# Experiment: In vitro Nrf2 transcriptional activity measurement by ARE-dependent reporter assay in HepG2 cell
# Format: cell-based, human
# Conditions: Homo sapiens; HepG2 cells transfected with pARE-Luc, 4 hours at 37° C.; luciferase activity of Example 1-54 or Example 17-23 at 3.75 μM defined as 100%
# Method: Test Example 1: In Vitro Nrf2 Transcriptional Activity Measurement by ARE-Dependent Reporter Assay in HepG2 Cell
# A human liver cancer-derived cell line HepG2 was transfected with pGL4.37 vector (pARE-Luc, Promega Corp.) and incubated overnight at 37° C. in a humidified atmosphere containing 5% CO2. The cells were dissociated by trypsin treatment, inoculated to a 384-well plate supplemented with a test compound, and incubated at 37° C. for 4 hours. Then, Bright-Glo Reagent (Promega Corp.) was added to the plate, and luciferase activity was measured with Envision plate reader.
# Luciferase activity obtained through the action of the compound of Example 1-54 or Example 17-23 at a concentration of 3.75 μM was defined as 100%. The luciferase activity of each well was converted to a response rate (%). The dose-response curve of the compound of each Example was prepared to calculate a 50% effective concentration (EC50).
row,Compound,EC50
1,"O=C(O)c1cc(F)c(-c2cccc3c2OCN(C(=O)c2c(Cl)cc(N4CC(O)C4)cc2Cl)C3)cc1N1C2CCC1COC2 [Compound 1-17, 4-[3-[2,6-Dichloro-4-(3-hydroxyazetidin-1-yl)benzoyl]-2,4-dihydro-1,3-benzoxazin-8-yl]-5-fluoro-2-(3-oxa-8-azabicyclo[3.2.1]octan-8-yl)benzoic acid]",19 nM
2,"O=C(O)c1cc(F)c(-c2cccc3c2OCN(C(=O)c2c(Cl)cc(N4CC(F)(F)C4)cc2Cl)C3)cc1N1C2CCC1COC2 [Compound 1-19, 4-[3-[2,6-Dichloro-4-(3,3-difluoroazetidin-1-yl)benzoyl]-2,4-dihydro-1,3-benzoxazin-8-yl]-5-fluoro-2-(3-oxa-8-azabicyclo[3.2.1]octan-8-yl)benzoic acid]",6.3 nM
3,"O=C(O)c1cc(F)c(-c2cccc3c2OCN(C(=O)c2c(Cl)cc(N4CC(F)C4)cc2Cl)C3)cc1N1C2CCC1COC2 [Compound 1-20, 4-[3-[2,6-Dichloro-4-(3-fluoroazetidin-1-yl)benzoyl]-2,4-dihydro-1,3-benzoxazin-8-yl]-5-fluoro-2-(3-oxa-8-azabicyclo[3.2.1]octan-8-yl)benzoic acid]",3.2 nM
4,"CO[C@@H]1COC2(C1)CN(c1cc(Cl)c(C(=O)N3COc4c(cccc4-c4cc(N5C6CCC5COC6)c(C(=O)O)cc4F)C3)c(Cl)c1)C2 [Compound 1-22, 4-[3-[2,6-Dichloro-4-[(7S)-7-methoxy-5-oxa-2-azaspiro[3.4]octan-2-yl]benzoyl]-2,4-dihydro-1,3-benzoxazin-8-yl]-5-fluoro-2-(3-oxa-8-azabicyclo[3.2.1]octan-8-yl)benzoic acid]",2.1 nM
5,"CO[C@H]1COC2(C1)CN(c1cc(Cl)c(C(=O)N3COc4c(cccc4-c4cc(N5C6CCC5COC6)c(C(=O)O)cc4F)C3)c(Cl)c1)C2 [Compound 1-23, 4-[3-[2,6-Dichloro-4-[(7R)-7-methoxy-5-oxa-2-azaspiro[3.4]octan-2-yl]benzoyl]-2,4-dihydro-1,3-benzoxazin-8-yl]-5-fluoro-2-(3-oxa-8-azabicyclo[3.2.1]octan-8-yl)benzoic acid]",1.9 nM
6,"CO[C@H]1C[C@@]2(CN(c3cc(Cl)c(C(=O)N4COc5c(cccc5-c5cc(N6C7CCC6COC7)c(C(=O)O)cc5F)C4)c(Cl)c3)[C@@H]2C)C1 [Compound 1-24, 4-[3-[2,6-Dichloro-4-[(1R,4r,6R)-6-methoxy-1-methyl-2-azaspiro[3.3]heptan-2-yl]benzoyl]-2,4-dihydro-1,3-benzoxazin-8-yl]-5-fluoro-2-(3-oxa-8-azabicyclo[3.2.1]octan-8-yl)benzoic acid]",1.4 nM
7,"CO[C@H]1C[C@@]2(CN(c3cc(Cl)c(C(=O)N4COc5c(cccc5-c5cc(N6C7CCC6COC7)c(C(=O)O)cc5F)C4)c(Cl)c3)[C@H]2C)C1 [Compound 1-25, 4-[3-[2,6-Dichloro-4-[(1S,4r,6S)-6-methoxy-1-methyl-2-azaspiro[3.3]heptan-2-yl]benzoyl]-2,4-dihydro-1,3-benzoxazin-8-yl]-5-fluoro-2-(3-oxa-8-azabicyclo[3.2.1]octan-8-yl)benzoic acid]",1.5 nM
8,"CO[C@H]1C[C@]2(CN(c3cc(Cl)c(C(=O)N4COc5c(cccc5-c5cc(N6C7CCC6COC7)c(C(=O)O)cc5F)C4)c(Cl)c3)[C@@H]2C)C1 [Compound 1-26, 4-[3-[2,6-Dichloro-4-[(1R,4s,6S)-6-methoxy-1-methyl-2-azaspiro[3.3]heptan-2-yl]benzoyl]-2,4-dihydro-1,3-benzoxazin-8-yl]-5-fluoro-2-(3-oxa-8-azabicyclo[3.2.1]octan-8-yl)benzoic acid]",1.4 nM
9,"CO[C@H]1C[C@]2(CN(c3cc(Cl)c(C(=O)N4COc5c(cccc5-c5cc(N6C7CCC6COC7)c(C(=O)O)cc5F)C4)c(Cl)c3)[C@H]2C)C1 [Compound 1-27, 4-[3-[2,6-Dichloro-4-[(1S,4s,6R)-6-methoxy-1-methyl-2-azaspiro[3.3]heptan-2-yl]benzoyl]-2,4-dihydro-1,3-benzoxazin-8-yl]-5-fluoro-2-(3-oxa-8-azabicyclo[3.2.1]octan-8-yl)benzoic acid]",2.9 nM
10,"CO[C@@H]1CCOC12CN(c1cc(Cl)c(C(=O)N3COc4c(cccc4-c4cc(N5C6CCC5COC6)c(C(=O)O)cc4F)C3)c(Cl)c1)C2 [Compound 1-30, 4-[3-[2,6-Dichloro-4-[(8R)-8-methoxy-5-oxa-2-azaspiro[3.4]octan-2-yl]benzoyl]-2,4-dihydro-1,3-benzoxazin-8-yl]-5-fluoro-2-(3-oxa-8-azabicyclo[3.2.1]octan-8-yl)benzoic acid]",2.6 nM
11,"CO[C@H]1CCOC12CN(c1cc(Cl)c(C(=O)N3COc4c(cccc4-c4cc(N5C6CCC5COC6)c(C(=O)O)cc4F)C3)c(Cl)c1)C2 [Compound 1-31, 4-[3-[2,6-Dichloro-4-[(8S)-8-methoxy-5-oxa-2-azaspiro[3.4]octan-2-yl]benzoyl]-2,4-dihydro-1,3-benzoxazin-8-yl]-5-fluoro-2-(3-oxa-8-azabicyclo[3.2.1]octan-8-yl)benzoic acid]",1.9 nM
12,"O=C(O)c1cc(F)c(-c2cccc3c2OCN(C(=O)c2c(Cl)cc(N4CCNC(C(F)(F)F)C4)cc2Cl)C3)cc1N1C2CCC1COC2 (stereo not shown) [Compound 1-32, 4-[3-[2,6-Dichloro-4-[3-(trifluoromethyl)piperazin-1-yl]benzoyl]-2,4-dihydro-1,3-benzoxazin-8-yl]-5-fluoro-2-(3-oxa-8-azabicyclo[3.2.1]octan-8-yl)benzoic acid]",1.5 nM
13,"CN1CCN(c2cc(Cl)c(C(=O)N3COc4c(cccc4-c4cc(N5C6CCC5COC6)c(C(=O)O)cc4F)C3)c(Cl)c2)CC12COC2 [Compound 1-34, 4-[3-[2,6-Dichloro-4-(5-methyl-2-oxa-5,8-diazaspiro[3.5]nonan-8-yl)benzoyl]-2,4-dihydro-1,3-benzoxazin-8-yl]-5-fluoro-2-(3-oxa-8-azabicyclo[3.2.1]octan-8-yl)benzoic acid]",39 nM
14,"O=C(O)c1cc(F)c(-c2cccc3c2OCN(C(=O)c2c(Cl)cc(N4CCN(CC(F)(F)F)CC4)cc2Cl)C3)cc1N1C2CCC1COC2 [Compound 1-35, 4-[3-[2,6-Dichloro-4-[4-(2,2,2-trifluoroethyl)piperazin-1-yl]benzoyl]-2,4-dihydro-1,3-benzoxazin-8-yl]-5-fluoro-2-(3-oxa-8-azabicyclo[3.2.1]octan-8-yl)benzoic acid]",5.8 nM
15,"CN1CC2CCCC(C1)N2c1cc(Cl)c(C(=O)N2COc3c(cccc3-c3cc(N4C5CCC4COC5)c(C(=O)O)cc3F)C2)c(Cl)c1 [Compound 1-36, 4-[3-[2,6-Dichloro-4-(3-methyl-3,9-diazabicyclo[3.3.1]nonan-9-yl)benzoyl]-2,4-dihydro-1,3-benzoxazin-8-yl]-5-fluoro-2-(3-oxa-8-azabicyclo[3.2.1]octan-8-yl)benzoic acid]",1.8 nM
16,"O=C(O)c1cc(F)c(-c2cccc3c2OCN(C(=O)c2c(Cl)cc(N4CC5CCC(C4)O5)cc2Cl)C3)cc1N1C2CCC1COC2 [Compound 1-37, 4-[3-[2,6-Dichloro-4-(8-oxa-3-azabicyclo[3.2.1]octan-3-yl)benzoyl]-2,4-dihydro-1,3-benzoxazin-8-yl]-5-fluoro-2-(3-oxa-8-azabicyclo[3.2.1]octan-8-yl)benzoic acid]",2.1 nM
17,"O=C(O)c1cc(F)c(-c2cccc3c2OCN(C(=O)c2c(Cl)cc(N4CCOC5CC54)cc2Cl)C3)cc1N1C2CCC1COC2 (stereo not shown) [Compound 1-38, 4-[3-[2,6-Dichloro-4-(2-oxa-5-azabicyclo[4.1.0]heptan-5-yl)benzoyl]-2,4-dihydro-1,3-benzoxazin-8-yl]-5-fluoro-2-(3-oxa-8-azabicyclo[3.2.1]octan-8-yl)benzoic acid]",1.8 nM
18,O=C(O)c1cc(F)c(-c2cccc3c2OCN(C(=O)c2c(Cl)cc(N4CCn5nccc5C4)cc2Cl)C3)cc1N1C2CCC1COC2 [Compound 1-39],18 nM
19,"COC1CN(c2cc(Cl)c(C(=O)N3COc4c(cccc4-c4cc(N5C6CCC5COC6)c(C(=O)O)cc4F)C3)c(Cl)c2)CCO1 (stereo not shown) [Compound 1-40, 4-[3-[2,6-Dichloro-4-(2-methoxymorpholin-4-yl)benzoyl]-2,4-dihydro-1,3-benzoxazin-8-yl]-5-fluoro-2-(3-oxa-8-azabicyclo[3.2.1]octan-8-yl)benzoic acid]",3 nM
20,"O=C(O)c1cc(F)c(-c2cccc3c2OCN(C(=O)c2c(Cl)cc(N4C5CCC4COC5)cc2Cl)C3)cc1N1C2CCC1COC2 [Compound 1-41, 4-[3-[2,6-Dichloro-4-(3-oxa-8-azabicyclo[3.2.1]octan-8-yl)benzoyl]-2,4-dihydro-1,3-benzoxazin-8-yl]-5-fluoro-2-(3-oxa-8-azabicyclo[3.2.1]octan-8-yl)benzoic acid]",2 nM
21,"C[C@@H]1COCCN1c1cc(Cl)c(C(=O)N2COc3c(cccc3-c3cc(N4C5CCC4COC5)c(C(=O)O)cc3F)C2)c(Cl)c1 [Compound 1-42, 4-[3-[2,6-Dichloro-4-[(3R)-3-methylmorpholin-4-yl]benzoyl]-2,4-dihydro-1,3-benzoxazin-8-yl]-5-fluoro-2-(3-oxa-8-azabicyclo[3.2.1]octan-8-yl)benzoic acid]",2.6 nM
22,"O=C(O)c1cc(F)c(-c2cccc3c2OCN(C(=O)c2c(Cl)cc(N4C5CCCC4COC5)cc2Cl)C3)cc1N1C2CCC1COC2 [Compound 1-43, 4-[3-[2,6-Dichloro-4-(3-oxa-9-azabicyclo[3.3.1]nonan-9-yl)benzoyl]-2,4-dihydro-1,3-benzoxazin-8-yl]-5-fluoro-2-(3-oxa-8-azabicyclo[3.2.1]octan-8-yl)benzoic acid]",1.8 nM
